Read-outs that look alike come from different tables or passages of the source.
Legend:
in vitro = details: human
[1] = test system: human beta-coronavirus OC43; test: OC43 Coronavirus Assay in HeLa cells (antiviral, cytopathic effect, cell-titer-glo); format: cell-based; details: Betacoronavirus 1, OC43, HeLa, Table B, OC43 coronavirus in HeLa cells, read-out: EC50
[2] = Cytotoxicity in HeLa cells without addition of OC43 virus (in parallel); details: human, HeLa cells, without OC43 virus
SARS-Cov-2 3CLpro = SARS-Cov-2 3CLpro (Severe acute respiratory syndrome coronavirus 2, UniProt P0DTD1); test: biochemical; details: Table A, class symbols, read-out: SARS-Cov-2 (IC50)
[3] = test system: SARS-CoV-2 B.1.1.7 lineage; test: microbe, parasite or virus in culture; format: cell-based; details: Severe acute respiratory syndrome coronavirus 2, Table C, SARS-CoV-2 B.1.1.7 in A549-dual_ACE2_TMPRSS2 cells, read-out: A549-dual_ACE2_TMPRSS2 (EC50)

SMILES | CC50 (in vitro) | EC50 ([1]; class symbols) | CC50 at 6 days [2] | IC50 (SARS-Cov-2 3CLpro) | EC50 ([3]; class symbols) | EC50 ([3]; cells given as a bound) | EC50 ([1]; cells given as a bound)
CN(C(=O)[C@H](CC1(C)CC1)NC(=O)C(F)(F)F)[C@@H](CC1(C)CC1)C(=O)N1C[C@@]2(C[C@H]1C#N)Oc1cccnc1NC2=O [Compound 215] | > 1000 nM | < 100 nM | > 10000 nM | < 20 nM | < 100 nM |  | 
C[C@H](NC(=O)OC1CC1)C(=O)N(C)[C@@H](CC1CC1)C(=O)N1C[C@@]2(C[C@H]1C#N)Oc1cccnc1NC2=O [Compound 219] | > 1000 nM | < 100 nM | > 10000 nM | < 20 nM | 100 to 1000 nM |  | 
CCOC[C@H](NC(=O)C(F)(F)F)C(=O)N(C)[C@@H](CC1CC1)C(=O)N1C[C@@]2(C[C@H]1C#N)Oc1cccnc1NC2=O [Compound 220] | > 1000 nM | < 100 nM | > 10000 nM | < 20 nM | 100 to 1000 nM |  | 
CC1NC(=O)[C@]2(C[C@@H](C#N)N(C(=O)[C@H](CC3CC3)N(C)C(=O)[C@H](CC3CC3)NC(=O)C(F)(F)F)C2)Oc2ccccc21 (stereo partly drawn) [Compound 222, (2S)—N-((2S)-1-((2R,5'S)-5′-cyano-5-methyl-3-oxo-4,5-dihydro-3H-spiro[benzo[f][1,4]oxazepine-2,3′-pyrrolidin]-1′-yl)-3-cyclopropyl-1-oxopropan-2-yl)-3-cyclopropyl-N-methyl-2-(2,2,2-trifluoroacetamido)propanamide] | > 1000 nM | < 100 nM | > 10000 nM | < 20 nM | < 100 nM |  | 
COC1CNC(=O)[C@]12C[C@@H](C#N)N(C(=O)[C@H](CC1CC1)N(C)C(=O)[C@H](CC1CC1)NC(=O)C(F)(F)F)C2 (stereo partly drawn) [Compound 225, (2S)—N-((2S)-1-((3S,5S)-3-cyano-9-methoxy-6-oxo-2,7-diazaspiro[4.4]nonan-2-yl)-3-cyclopropyl-1-oxopropan-2-yl)-3-cyclopropyl-N-methyl-2-(2,2,2-trifluoroacetamido)propanamide] | > 1000 nM | 100 to 1000 nM | > 10000 nM | 20 to 200 nM | 100 to 1000 nM |  | 
CN(C(=O)C(=O)Nc1ccc(F)cc1)[C@@H](CC1CC1)C(=O)N1C[C@@]2(C[C@H]1C#N)Oc1cccnc1NC2=O [Compound 226, N^1—((S)-1-((2R,5'S)-5′-cyano-3-oxo-3,4-dihydrospiro[pyrido[3,2-b][1,4]oxazine-2,3′-pyrrolidin]-1′-yl)-3-cyclopropyl-1-oxopropan-2-yl)-N^2-(4-fluorophenyl)-N^1-methyloxalamide] | > 1000 nM | 1000 to 10000 nM | > 10000 nM | 200 to 2000 nM |  | > 1000 nM | 
Cc1ccc2c(n1)O[C@@]1(C[C@@H](C#N)N(C(=O)[C@H](CC3CC3)N(C)C(=O)[C@H](CC3CC3)NC(=O)C(F)(F)F)C1)C(=O)N2 [Compound 227, (S)—N—((S)-1-((3R,5'S)-5′-cyano-6-methyl-2-oxo-1,2-dihydrospiro[pyrido[2,3-b][1,4]oxazine-3,3′-pyrrolidin]-1′-yl)-3-cyclopropyl-1-oxopropan-2-yl)-3-cyclopropyl-N-methyl-2-(2,2,2-trifluoroacetamido)propanamide] | > 1000 nM | < 100 nM | > 10000 nM | < 20 nM | 100 to 1000 nM |  | 
CN(C(=O)[C@H](CC1CC1)NC(=O)C(F)(F)F)[C@@H](CC1CC1)C(=O)N1C[C@@]2(C[C@H]1C#N)Oc1ccccc1C(C)(C)NC2=O [Compound 228] | > 1000 nM | 100 to 1000 nM | > 10000 nM | 20 to 200 nM | 100 to 1000 nM |  | 
Cc1ccc2c(n1)NC(=O)[C@]1(C[C@@H](C#N)N(C(=O)[C@H](CC3CC3)N(C)C(=O)[C@H](C)NC(=O)C(F)(F)F)C1)O2 [Compound 229, (S)—N—((S)-1-((2R,5'S)-5′-cyano-6-methyl-3-oxo-3,4-dihydrospiro[pyrido[3,2-b][1,4]oxazine-2,3′-pyrrolidin]-1′-yl)-3-cyclopropyl-1-oxopropan-2-yl)-N-methyl-2-(2,2,2-trifluoroacetamido)propanamide] | > 1000 nM | < 100 nM | > 10000 nM | < 20 nM | 100 to 1000 nM |  | 
CC(C)C[C@@H](C(=O)N1C[C@@]2(C[C@H]1C#N)Oc1ccccc1NC2=O)N(C)C(=O)[C@H](C)NC(=O)C(F)(F)F [Example 1, (S)—N—((S)-1-((2R,5′S)-5′-cyano-3-oxo-3,4-dihydrospiro[benzo[b][1,4]oxazine-2,3′-pyrrolidin]-1′-yl)-4-methyl-1-oxopentan-2-yl)-N-methyl-2-(2,2,2-trifluoroacetamido)propanamide] | > 1000 nM | < 100 nM | > 10000 nM | < 20 nM | < 100 nM |  | 
CC(C)C[C@@H](C(=O)N1C[C@@]2(C[C@H]1C#N)Oc1ccccc1NC2=O)N(C)C(=O)c1cc2c(F)cc(F)cc2[nH]1 [Example 2, N—((S)-1-((2R,5'S)-5′-cyano-3-oxo-3,4-dihydrospiro[benzo[b][1,4]oxazine-2,3′-pyrrolidin]-1′-yl)-4-methyl-1-oxopentan-2-yl)-4,6-difluoro-N-methyl-1H-indole-2-carboxamide] | > 1000 nM | 100 to 1000 nM | > 10000 nM | < 20 nM | 100 to 1000 nM |  | 
CC(C)C[C@@H](C(=O)N1C[C@@]2(C[C@H]1C#N)Oc1ccncc1NC2=O)N(C)C(=O)c1cc2c(F)cc(F)cc2[nH]1 [Example 3, N—((S)-1-((2R,5'S)-5′-cyano-3-oxo-3,4-dihydrospiro[pyrido[4,3-b][1,4]oxazine-2,3′-pyrrolidin]-1′-yl)-4-methyl-1-oxopentan-2-yl)-4,6-difluoro-N-methyl-1H-indole-2-carboxamide] | > 1000 nM |  | > 10000 nM | 20 to 200 nM | 1000 to 10000 nM |  | > 1000 nM
CC(C)C[C@@H](C(=O)N1C[C@@]2(C[C@H]1C#N)OCc1ccccc1NC2=O)N(C)C(=O)c1cc2c(F)cc(F)cc2[nH]1 [Example 4, N—((S)-1-((3R,5'S)-5′-cyano-2-oxo-1,5-dihydro-2H-spiro[benzo[e][1,4]oxazepine-3,3′-pyrrolidin]-1′-yl)-4-methyl-1-oxopentan-2-yl)-4,6-difluoro-N-methyl-1H-indole-2-carboxamide] | > 1000 nM |  | > 10000 nM | 20 to 200 nM | 1000 to 10000 nM |  | > 1000 nM
CC(C)C[C@@H](C(=O)N1C[C@]2(C[C@H]1C#N)OC(=O)Nc1ccccc12)N(C)C(=O)c1cc2c(F)cc(F)cc2[nH]1 [Example 5, N—((S)-1-((4R,5'S)-5′-cyano-2-oxo-1,2-dihydrospiro[benzo[d][1,3]oxazine-4,3′-pyrrolidin]-1′-yl)-4-methyl-1-oxopentan-2-yl)-4,6-difluoro-N-methyl-1H-indole-2-carboxamide] | > 1000 nM |  | > 10000 nM | 200 to 2000 nM | 1000 to 10000 nM |  | > 1000 nM
CC(C)C[C@@H](C(=O)N1C[C@@]2(C[C@H]1C#N)N=C(c1ccccc1)NC2=O)N(C)C(=O)c1cc2c(F)cc(F)cc2[nH]1 [Example 6, N-[(2S)-1-[(5R,8S)-8-cyano-4-oxo-2-phenyl-1,3,7-triazaspiro[4.4]non-1-en-7-yl]-4-methyl-1-oxopentan-2-yl]-4,6-difluoro-N-methyl-1H-indole-2-carboxamide] | > 1000 nM | 100 to 1000 nM | > 10000 nM | < 20 nM | 100 to 1000 nM |  | 
CC(C)C[C@@H](C(=O)N1C[C@]2(C[C@H]1C#N)C(=O)Nc1c3ccccc3nn12)N(C)C(=O)[C@H](C)NC(=O)C(F)(F)F [Example 27, (2S)—N-[(2S)-1-[(3R,5'S)-5′-cyano-2-oxo-1H-spiro[imidazo[1,2-b]indazole-3,3′-pyrrolidin]-1′-yl]-4-methyl-1-oxopentan-2-yl]-N-methyl-2-(2,2,2-trifluoroacetamido)propanamide] | > 1000 nM | 1000 to 10000 nM | > 10000 nM | 20 to 200 nM |  | > 1000 nM | 
CC(C)C[C@@H](C(=O)N1C[C@]2(CC(c3ccccc3)=NNC2=O)C[C@H]1C#N)N(C)C(=O)[C@H](C)NC(=O)C(F)(F)F [Example 29, (S)—N—((S)-1-((3S,5R)-3-cyano-6-oxo-9-phenyl-2,7,8-triazaspiro[4.5]dec-8-en-2-yl)-4-methyl-1-oxopentan-2-yl)-N-methyl-2-(2,2,2-trifluoroacetamido)propanamide] | > 1000 nM | 1000 to 10000 nM | > 10000 nM | 20 to 200 nM | 100 to 1000 nM |  | 
CC(C)C[C@@H](C(=O)N1C[C@]2(CC(c3ccccc3)=NNC2=O)C[C@H]1C#N)N(C)C(=O)c1cc2c(F)cc(F)c(F)c2[nH]1 [Example 30, N—((S)-1-((3S,5R)-3-cyano-6-oxo-9-phenyl-2,7,8-triazaspiro[4.5]dec-8-en-2-yl)-4-methyl-1-oxopentan-2-yl)-4,6,7-trifluoro-N-methyl-1H-indole-2-carboxamide] | > 1000 nM | 100 to 1000 nM | > 10000 nM | < 20 nM | 100 to 1000 nM |  | 

Reference: US20240199647A1, “ANTI-VIRAL COMPOUNDS” (Aligos Therapeutics, Inc., priority 2022, published 2024)
